Legend:
Punta toro virus (Vero) = assay: microbe, parasite or virus in culture; format: cell-based
uninfected cells = details: for Cytotoxicity MCC: minimum cytotoxic concentration, microscopically detectable alteration of cell morphology
CEM cell extract = assay: Prodrug conversion in crude cell extracts; format: in vitro ADME, human; details: for efficiency of conversion among the prodrugs: similar trend in HeLa and MDCK cell extracts
[1] = tested on: Influenza A/H3N2 subtype (MDCK); format: cell-based, influenza virus type A (H3N2)
[2] = tested on: Respiratory syncytial virus (HeLa); format: cell-based, respiratory syncytial virus (RSV) strain Long; details: relative to ribavirin (1)
HCV (Huh-5–2) = assay: HCV subgenomic replicon luciferase assay in Huh 5-2 cells; format: cell-based, hepatitis C virus (HCV)
several viruses = format: cell-based
Vaccinia virus (HEL) = format: cell-based, vaccinia virus Lederle strain
[3] = cell extract, 37 °C, after 60 min of incubation

C[C@H](NP(=O)(OC[C@H]1O[C@@H](n2cnc(C(N)=O)n2)[C@H](O)[C@@H]1O)Oc1cccc2ccccc12)C(=O)OCc1ccccc1 (stereo partly drawn) [Compound 13, ribavirin-5′-[1-naphthyl(benzoxy-L-alaninyl)] phosphate]
EC50 (Punta toro virus (Vero); Punta Toro virus, Vero, read-out: Antiviral activity EC50, Punta toro virus (Vero)): > 100 µM
Cytotoxicity MCC (uninfected cells): >100 µM
conversion of isomer tR 19.3 min to metabolite tR 20.2 min (CEM cell extract; cell extract, 37 °C, before second isomer (tR 19.0 min) started to be converted): ≥ 95%
fold lower potency than ribavirin, influenza virus [1]: ~2 fold
fold less active than ribavirin, respiratory syncytial virus [2]: about threefold
potency relative to ribavirin, HCV subgenomic replicon replication (HCV (Huh-5–2)): equipotent to ribavirin

NC(=O)c1ncn([C@@H]2O[C@H](COP(=O)(N[C@@H](Cc3ccccc3)C(=O)OCc3ccccc3)Oc3cccc4ccccc34)[C@@H](O)[C@H]2O)n1 (stereo partly drawn) [Compound 14, ribavirin-5’-[1-naphthyl(benzoxy-L-phenylalaninyl)] phosphate]
Cytotoxicity MCC (uninfected cells): >100 µM
conversion of both diastereoisomers (not separable) to metabolite tR 20.2 min (CEM cell extract; CEM cell extract, 37 °C, within 20 min): 80%
efficiency of conversion among the prodrugs (CEM cell extract; CEM cell extract): most efficiently converted
antiviral activity, all the viruses tested (several viruses): no or borderline activity

NC(=O)c1ncn([C@@H]2O[C@H](COP(=O)(NCC(=O)OCc3ccccc3)Oc3cccc4ccccc34)[C@@H](O)[C@H]2O)n1 (stereo partly shown) [Compound 15]
fold superior to ribavirin, Punto Toro virus replication (Punta toro virus (Vero); relative to ribavirin): 3–5 fold
Cytotoxicity MCC (uninfected cells): >100 µM
efficiency of conversion among the prodrugs (CEM cell extract; CEM cell extract): least efficiently converted
conversion of isomer tR 18.8 min to tR 20.2 (CEM cell extract; [3]): 10%
levels of isomer tR 18.5 (CEM cell extract; [3]): virtually unaltered
fold superior to ribavirin, vaccinia virus replication (Vaccinia virus (HEL)): 3–5 fold
fold less active than ribavirin, respiratory syncytial virus [2]: about threefold

NC(=O)c1ncn([C@@H]2O[C@H](CO)[C@@H](O)[C@H]2O)n1 [Ribavirin, 1-β-D-ribofuranosyl-1,2,4-triazole-3-carboxamide, reference compound]
toxicity to uninfected cells (uninfected cells; at 100 μM): non-toxic
Cytotoxicity MCC (uninfected cells): >100 µM
